Holding throughout (type): biochemical
The target in one experiment is T1, MELK (Homo sapiens, UniProt Q14680).
T1 construct: purchased Invitrogen or Millipore
The experiment can be described thus: MELK kinase assay (KinaseGLO). How it is done: (§1) Compound Preparation: KinaseGLO assay: 30× stocks of inhibitors were prepared in DMSO. A 10 mM master stock was prepared and all other stocks were generated by serial dilution of this master stock in DMSO. The final concentration of DMSO in the kinase reaction was 3.3% (v/v).
MELK kinase assay: The ability of compounds to inhibit MELK was also determined using the KinaseGLO assay. Briefly, MELK enzymes was thawed and diluted to a final concentration of 2.64 ng/μL in reaction buffer (50 mM HEPES, pH7.5, 100 mM NaCl, 2.0 mM DTT, 3.0 mM MgCl2, 1.0 mM EGTA, 10 μM ATP). 19 μl of this kinase reaction mixture was aliquoted into test wells (50 ng MELK/well) in a Microfluor2 white 96-well plate (Thermo Scientific). As a preincubation step, 1 μl of 30× compound dilutions was added to the appropriate test wells to generate a ten point dose-response ranging from 0.0 μM-10 μM inhibitor, and incubated for 15 minutes at 4° C. The reaction was started by addition of 10 μL of 150 μM ZIPtide peptide substrate resuspended in reaction buffer (50 μM final concentration of ZIPtide). Reactions were incubated at room temperature for 2 hours prior to addition of 30 μL of KinaseGLO reagent and development as described. Maximal luminescence (no MELK activity/maximal MELK inhibition) was determined from reaction buffer plus peptide substrate only controls. The minimal signal (maximal MELK activity) was determined by the 0.0 μM compound (DMSO only) control. IC50 values were calculated via non-linear regression using GraphPad Prism data analysis software. […]
(§2) Compounds of the invention were assayed against the select kinases using the KinaseGLO assay (MELK) or the radiometric assay (PIM, TRKC, PDGFRα(D842V), MNK1 and mTOR). IC50 values were determined using 8-10 point half-log dose dilutions and calculated via nonlinear regression analysis using Graphpad Prism data analysis software.
(In general: Kinase-Glo measures the ATP left after a reaction by luminescence.)

In a further experiment the target is T2, PI3Kα (Homo sapiens, UniProt P42336).
T2 construct: purchased Invitrogen or Millipore
The experiment can be described thus: KinaseGLO luminescent PI3-kinase assay, PI3Kα. How it is done:
as §1
PI3-Kinase Assay: The KinaseGLO® Luminescent Kinase Assay (Promega) is a luciferin-luciferase based luminescent assay that utilizes a proprietary thermostable luciferase to quantify the ATP remaining in a solution after a kinase reaction. The luminescent signal generated using KinaseGLO® directly correlates with ATP concentration, and therefore inversely correlates with kinase activity.
PI3K enzyme sample was thawed and diluted to 100 ng/μL in enzyme dilution buffer (50 mM HEPES, pH7.5, 3.0 mM MgCl2, 1.0 mM EGTA) and stored on ice. PI3Kα enzyme was diluted to a final concentration of 1 ng/μL in reaction buffer (for PI3Kα; 50 mM HEPES, pH7.5, 100 mM NaCl, 2.0 mM DTT, 3.0 mM MgCl2, 1.0 mM EGTA, 10 μM ATP) and gently mixed. 25 μL of this kinase reaction was then aliquoted into test wells in a Microfluor2 white 96-well plate (Thermo Scientific). As a preincubation step, 1 μl of 30× compound dilutions was added to the appropriate test wells to generate a ten point dose-response ranging from 0.0 μM-10 μM inhibitor. The enzyme-inhibitor mixture was then incubated for 30 minutes at 4° C. After this preincubation, […] (50 μM final concentration) was added to each test well to initiate the kinase reaction. Reactions were incubated at room temperature for 2 hours with moderate shaking. The KinaseGLO® luminescent reagent (Promega) was prepared according to the manufacturer's instructions. Both the KinaseGLO® buffer and substrate were allowed to thaw and equilibrate at room temperature for two hours prior to mixing and use. The PI3-kinase reaction was terminated by the addition of 30 μL of reconstituted KinaseGLO® reagent to each reaction well and then incubated in the dark for 10 minutes at room temperature. Luminescent signal was detected using a SpectraMax M5 (Molecular Devices). Maximal luminescence (no PI3K activity/maximal PI3K inhibition) was determined from reaction buffer plus SC-PI substrate only controls. The minimal signal (maximal PI3K activity) was determined by the 0.0 μM compound (DMSO only) control. IC50 values were calculated via non-linear regression using GraphPad Prism data analysis software.
Compounds were assayed against the Class I PI3Kα, PI3Kβ, PI3Kγ, PI3Kδ, PI3Kα(H1047R) and PI3Kα(E545K) in the KinaseGLO assay as described in Example 2, and against the Class IV PI3K mTOR in the radiometric assay. IC50 values (μM) were determined using 8-10 point half-log dose dilutions and calculated via nonlinear regression analysis using Graphpad Prism data analysis software.

The target in the next experiment is PIM-1 (Homo sapiens, UniProt P11309). The experiment can be described thus: Radiometric HotSpot kinase assay, PIM-1. Particulars: 1 μM compound, 10 μM ATP. How it is done: Kinase Profiling: The inhibitory activity of the PI3K inhibitor compounds of the invention against 250 protein kinases was determined via the radiometric HotSpot Kinase Profiling (Reaction Biology Corporation, Malvern, Pa.). Compounds were profiled at a final concentration of 1 μM compound against recombinant protein kinases in the presence of 10 μM ATP and data were expressed as percent inhibition. IC50 and/or percent inhibition at 1 μM compound values were determined for select compounds against a subset of kinases (MELK, MNK1, MNK2, mTOR, PIM-1. TRKC, and PDGFRα(D842V)).
as §2

Where only a bound is given, the exact number is not on record here.

T1 sequence (Q14680 whole entry): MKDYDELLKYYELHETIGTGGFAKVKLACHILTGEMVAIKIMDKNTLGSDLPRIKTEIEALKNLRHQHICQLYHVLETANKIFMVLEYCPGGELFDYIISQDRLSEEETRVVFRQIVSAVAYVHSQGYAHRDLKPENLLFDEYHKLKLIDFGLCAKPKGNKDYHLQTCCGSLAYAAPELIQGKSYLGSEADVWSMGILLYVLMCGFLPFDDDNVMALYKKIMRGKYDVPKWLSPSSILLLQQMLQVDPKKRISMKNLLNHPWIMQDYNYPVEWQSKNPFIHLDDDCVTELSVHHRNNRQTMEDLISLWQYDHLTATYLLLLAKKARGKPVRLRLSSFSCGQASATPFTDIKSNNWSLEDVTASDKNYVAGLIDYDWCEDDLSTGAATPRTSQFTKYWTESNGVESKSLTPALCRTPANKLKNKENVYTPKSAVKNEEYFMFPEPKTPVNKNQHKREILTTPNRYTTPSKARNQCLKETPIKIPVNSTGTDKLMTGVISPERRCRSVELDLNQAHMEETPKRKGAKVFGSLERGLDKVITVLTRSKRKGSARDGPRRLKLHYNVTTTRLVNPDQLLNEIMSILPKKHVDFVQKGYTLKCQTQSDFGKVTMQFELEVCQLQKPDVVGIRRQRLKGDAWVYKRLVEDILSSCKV
T2 sequence (P42336 whole entry): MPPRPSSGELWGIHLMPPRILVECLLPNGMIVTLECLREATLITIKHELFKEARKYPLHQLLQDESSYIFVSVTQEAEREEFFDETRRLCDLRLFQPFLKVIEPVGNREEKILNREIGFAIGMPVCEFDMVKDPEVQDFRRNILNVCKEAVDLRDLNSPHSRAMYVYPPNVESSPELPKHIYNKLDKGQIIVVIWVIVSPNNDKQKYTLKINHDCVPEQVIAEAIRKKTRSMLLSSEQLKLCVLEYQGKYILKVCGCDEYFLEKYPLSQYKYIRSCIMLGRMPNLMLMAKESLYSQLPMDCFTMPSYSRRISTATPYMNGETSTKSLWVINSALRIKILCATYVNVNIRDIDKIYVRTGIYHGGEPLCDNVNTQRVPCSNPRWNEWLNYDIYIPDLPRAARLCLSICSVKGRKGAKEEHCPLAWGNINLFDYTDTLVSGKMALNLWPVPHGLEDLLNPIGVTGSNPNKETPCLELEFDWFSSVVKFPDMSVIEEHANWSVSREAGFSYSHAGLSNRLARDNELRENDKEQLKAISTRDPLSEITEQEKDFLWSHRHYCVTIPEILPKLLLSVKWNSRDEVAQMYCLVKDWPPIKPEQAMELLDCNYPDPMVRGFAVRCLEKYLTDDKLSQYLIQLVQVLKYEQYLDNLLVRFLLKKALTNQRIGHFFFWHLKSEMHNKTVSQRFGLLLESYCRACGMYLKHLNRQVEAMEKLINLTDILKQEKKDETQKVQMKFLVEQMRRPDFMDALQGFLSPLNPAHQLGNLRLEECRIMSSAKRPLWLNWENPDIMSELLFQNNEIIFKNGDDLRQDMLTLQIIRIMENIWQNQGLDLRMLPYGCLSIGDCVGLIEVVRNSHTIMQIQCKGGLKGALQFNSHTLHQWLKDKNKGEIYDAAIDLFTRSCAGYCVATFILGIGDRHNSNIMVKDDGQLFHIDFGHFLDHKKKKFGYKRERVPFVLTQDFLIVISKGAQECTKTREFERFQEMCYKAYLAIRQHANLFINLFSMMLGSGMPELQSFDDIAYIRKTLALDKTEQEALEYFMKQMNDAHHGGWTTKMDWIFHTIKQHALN
T2 sequence (P27986 whole entry partner): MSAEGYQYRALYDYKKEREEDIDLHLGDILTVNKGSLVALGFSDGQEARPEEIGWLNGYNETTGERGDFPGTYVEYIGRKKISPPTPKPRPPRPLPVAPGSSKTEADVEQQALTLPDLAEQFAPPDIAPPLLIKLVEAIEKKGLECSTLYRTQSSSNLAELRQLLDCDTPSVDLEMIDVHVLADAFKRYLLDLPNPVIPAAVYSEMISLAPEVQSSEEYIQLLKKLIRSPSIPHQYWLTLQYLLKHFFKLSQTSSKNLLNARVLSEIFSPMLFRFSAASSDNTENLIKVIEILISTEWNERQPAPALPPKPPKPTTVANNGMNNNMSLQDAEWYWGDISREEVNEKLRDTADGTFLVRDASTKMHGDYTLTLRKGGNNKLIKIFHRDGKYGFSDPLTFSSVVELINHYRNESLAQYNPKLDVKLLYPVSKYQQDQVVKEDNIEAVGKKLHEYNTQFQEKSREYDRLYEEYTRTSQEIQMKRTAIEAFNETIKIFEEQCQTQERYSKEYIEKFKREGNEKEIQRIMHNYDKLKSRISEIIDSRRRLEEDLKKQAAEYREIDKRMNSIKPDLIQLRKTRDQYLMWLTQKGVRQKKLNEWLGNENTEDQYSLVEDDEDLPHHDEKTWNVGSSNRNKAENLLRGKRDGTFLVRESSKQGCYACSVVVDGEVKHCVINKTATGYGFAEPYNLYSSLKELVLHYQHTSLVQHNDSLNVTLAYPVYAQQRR
Sequence of PIM-1 (P11309 whole entry): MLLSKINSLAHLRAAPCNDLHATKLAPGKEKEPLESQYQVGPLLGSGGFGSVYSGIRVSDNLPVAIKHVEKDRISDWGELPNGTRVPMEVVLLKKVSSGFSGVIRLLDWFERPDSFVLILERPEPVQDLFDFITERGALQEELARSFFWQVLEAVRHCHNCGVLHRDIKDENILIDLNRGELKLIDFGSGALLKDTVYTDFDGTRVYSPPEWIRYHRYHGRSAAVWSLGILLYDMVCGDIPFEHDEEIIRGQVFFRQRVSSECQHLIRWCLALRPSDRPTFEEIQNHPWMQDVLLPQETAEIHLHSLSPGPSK

What is called IC50 is the concentration that inhibits the measured activity by half. By inhibition is commonly meant the drop in the measured response relative to a control, in per cent. A lower inhibition goes with little suppression. Regarding `CC(C)(C#N)c1ccc(-c2n[nH]c3cnc4ccc(-c5cccnc5)cc4c23)cc1` [Compound 1107, 2-methyl-2-(4-(8-(pyridin-3-yl)-3H-pyrazolo[3,4-c]quinolin-1-yl)phenyl)propanenitrile], the results for the IC50 on MELK and on PI3Kα were below 12 nM and below 10 nM, respectively. The molecule also showed an inhibition at 1 µM against PIM-1 of 85 to 95%.
Consider `CC(C)(C#N)c1ccc(-c2n[nH]c3cnc4ccc(-c5cnc6ccccc6c5)cc4c23)cc1` [Compound 1078, 2-methyl-2-(4-(8-(quinolin-3-yl)-3H-pyrazolo[3,4-c]quinolin-1-yl)phenyl)propanenitrile], for which the IC50 at MELK is above 30 nM; on PI3Kα, above 20 nM.
`CC(C)(C#N)c1ccc(-c2n[nH]c3cnc4ccc(-c5ccc6ncccc6c5)cc4c23)cc1` [Compound 1110, 2-methyl-2-(4-(8-(quinolin-6-yl)-3H-pyrazolo[3,4-c]quinolin-1-yl)phenyl)propanenitrile]: the IC50 against MELK was above 30 nM; against PI3Kα, below 10 nM. In addition, the inhibition at 1 µM against PIM-1 was in the range of 60 to 85%.

The record behind these values is patent US20110212053A1, “PHOSPHATIDYLINOSITOL 3 KINASE INHIBITORS” (priority 2008, published 2011).
